Source: patent US12612416B2, “Modulators of cystic fibrosis transmembrane conductance regulator” (VERTEX PHARMACEUTICALS INCORPORATED, priority 2020, dated 2026)
Read-outs that look alike come from different tables or passages of the source.

What was measured:
[1] = 13-membered ring
[2] = biological target: CFTR-mediated chloride transport in human intestinal epithelial enteroid cells (Homo sapiens, UniProt P13569); assay: Membrane potential dye, Enteroid Assay B; type: cell-based; conditions: for Ent. B Max Activity: % of chloride transport of triple combination control: 1 μM (14S)-8-[3-(2-{Dispiro[2.0.2.1]heptan-7-yl}ethoxy)-1H-pyrazol-1-yl]-12,12-dimethyl-...-2,2,4-trione, 3 μM tezacaftor, 300 nM acute ivacaftor; for EC50: enteroid cells, 18-24 hours incubation, acute 10 μM forskolin and 300 nM ivacaftor, read-out: Ent. B EC50
Method: Base medium (ADF+++) consisted of Advanced DMEM/Ham's F12, 2 mM Glutamax, 10 mM HEPES, […] penicillin/streptomycin.
Intestinal enteroid maintenance medium (IEMM) consisted of ADF+++, 1×B27 supplement, 1×N2 supplement, 1.25 mM N-acetyl cysteine, 10 mM Nicotinamide, 50 ng/mL hEGF, 10 nM Gastrin, 1 μg/mL hR-spondin-1, 100 ng/mL hNoggin, TGF-b type 1 inhibitor A-83-01, 100 μg/mL Primocin, 10 μM P38 MAPK inhibitor SB202190.
Bath 1 Buffer consisted of 1 mM MgCl2, 160 mM NaCl, 4.5 mM KCl, 10 mM HEPES, 10 mM Glucose, 2 mM CaCl2).
Chloride Free Buffer consisted of 1 mM Magnesium Gluconate, 2 mM Calcium Gluconate, 4.5 mM Potassium Gluconate, 160 mM Sodium Gluconate, 10 mM HEPES, 10 mM Glucose.
BathI Dye Solution consisted of Bath 1 Buffer, 0.04% Pluronic F127, 20 μM Methyl Oxonol, 30 μM CaCCinh-A01, 30 μM Chicago Sky Blue.
Chloride Free Dye Solution consisted of Chloride Free Buffer, 0.04% Pluronic F127, 20 μM Methyl Oxonol, 30 μM CaCCinh-A01, 30 μM Chicago Sky Blue.
Chloride Free Dye Stimulation Solution consisted of Chloride Free Dye Solution, 10 μM forskolin, 100 μM IBMX, and 300 nM Compound III.
Human intestinal epithelial enteroid cells were obtained from the Hubrecht Institute for Developmental Biology and Stem Cell Research, Utrecht, The Netherlands and expanded in T-Flasks as previously described (Dekkers J F, Wiegerinck C L, de Jonge H R, Bronsveld I, Janssens H M, de Winter-de Groot K M, Brandsma A M, de Jong N W M, Bijvelds M J C, Scholte B J, Nieuwenhuis E E S, van den Brink S, Clevers H, van der Ent C K, Middendorp S and M Beekman J M. A functional CFTR assay using primary cystic fibrosis intestinal organoids. Nat Med. 2013 July; 19(7):939-45.).
Cells were recovered in cell recovery solution, collected by centrifugation at 650 rpm for 5 minutes at 4° C., resuspended in TrypLE and incubated for 5 minutes at 37° C. Cells were then collected by centrifugation at 650 rpm for 5 minutes at 4° C. and resuspended in IEMM containing 10 μM ROCK inhibitor (RI). The cell suspension was passed through a 40 μm cell strainer and resuspended at 1×10^6 cells/mL in IEMM containing 10 μM RI. Cells were seeded at 5000 cells/well into multi-well plates and incubated for overnight at 37° C., 95% humidity and 5% CO2 prior to assay.
Enteroid cells were incubated with test compound in IEMM for 18-24 hours at 37° C., 95% humidity, and 5% C02. […] Briefly, cells were washed 5 times in Bath 1 Buffer. Bath 1 Dye Solution was added and the cells were incubated for 25 minutes at room temperature. Following dye incubation, cells were washed 3 times in Chloride Free Dye Solution. Chloride transport was initiated by addition of Chloride Free Dye Stimulation Solution and the fluorescence signal was read for 15 minutes. […] Chloride transport was then expressed as a percentage of the chloride transport following treatment with 1 μM (14S)-8-[3-(2-{Dispiro[2.0.2.1]heptan-7-yl}ethoxy)-1H-pyrazol-1-yl]-12,12-dimethyl-2λ^6-thia-3,9,11,18,23-pentaazatetracyclo[17.3.1.111,14.05,10]tetracosa-1(22),5,7,9,19(23),20-hexaene-2,2,4-trione, 3 μM (R)-1-(2,2-difluorobenzo[d][1,3]dioxol-5-yl)-N-(1-(2,3-dihydroxypropyl)-6-fluoro-2-(1-hydroxy-2-methylpropan-2-yl)-1H-indol-5-yl)cyclopropanecarboxamide and 300 nM acute N-[2,4-bis(1,1-dimethylethyl)-5-hydroxyphenyl]-1,4-dihydro-4-oxoquinoline-3-carboxamide triple combination control (% Activity).

CFTR-mediated chloride transport in human intestinal epithelial enteroid cells, sequence (P13569 with tags, fused parts or gaps DEL508-508): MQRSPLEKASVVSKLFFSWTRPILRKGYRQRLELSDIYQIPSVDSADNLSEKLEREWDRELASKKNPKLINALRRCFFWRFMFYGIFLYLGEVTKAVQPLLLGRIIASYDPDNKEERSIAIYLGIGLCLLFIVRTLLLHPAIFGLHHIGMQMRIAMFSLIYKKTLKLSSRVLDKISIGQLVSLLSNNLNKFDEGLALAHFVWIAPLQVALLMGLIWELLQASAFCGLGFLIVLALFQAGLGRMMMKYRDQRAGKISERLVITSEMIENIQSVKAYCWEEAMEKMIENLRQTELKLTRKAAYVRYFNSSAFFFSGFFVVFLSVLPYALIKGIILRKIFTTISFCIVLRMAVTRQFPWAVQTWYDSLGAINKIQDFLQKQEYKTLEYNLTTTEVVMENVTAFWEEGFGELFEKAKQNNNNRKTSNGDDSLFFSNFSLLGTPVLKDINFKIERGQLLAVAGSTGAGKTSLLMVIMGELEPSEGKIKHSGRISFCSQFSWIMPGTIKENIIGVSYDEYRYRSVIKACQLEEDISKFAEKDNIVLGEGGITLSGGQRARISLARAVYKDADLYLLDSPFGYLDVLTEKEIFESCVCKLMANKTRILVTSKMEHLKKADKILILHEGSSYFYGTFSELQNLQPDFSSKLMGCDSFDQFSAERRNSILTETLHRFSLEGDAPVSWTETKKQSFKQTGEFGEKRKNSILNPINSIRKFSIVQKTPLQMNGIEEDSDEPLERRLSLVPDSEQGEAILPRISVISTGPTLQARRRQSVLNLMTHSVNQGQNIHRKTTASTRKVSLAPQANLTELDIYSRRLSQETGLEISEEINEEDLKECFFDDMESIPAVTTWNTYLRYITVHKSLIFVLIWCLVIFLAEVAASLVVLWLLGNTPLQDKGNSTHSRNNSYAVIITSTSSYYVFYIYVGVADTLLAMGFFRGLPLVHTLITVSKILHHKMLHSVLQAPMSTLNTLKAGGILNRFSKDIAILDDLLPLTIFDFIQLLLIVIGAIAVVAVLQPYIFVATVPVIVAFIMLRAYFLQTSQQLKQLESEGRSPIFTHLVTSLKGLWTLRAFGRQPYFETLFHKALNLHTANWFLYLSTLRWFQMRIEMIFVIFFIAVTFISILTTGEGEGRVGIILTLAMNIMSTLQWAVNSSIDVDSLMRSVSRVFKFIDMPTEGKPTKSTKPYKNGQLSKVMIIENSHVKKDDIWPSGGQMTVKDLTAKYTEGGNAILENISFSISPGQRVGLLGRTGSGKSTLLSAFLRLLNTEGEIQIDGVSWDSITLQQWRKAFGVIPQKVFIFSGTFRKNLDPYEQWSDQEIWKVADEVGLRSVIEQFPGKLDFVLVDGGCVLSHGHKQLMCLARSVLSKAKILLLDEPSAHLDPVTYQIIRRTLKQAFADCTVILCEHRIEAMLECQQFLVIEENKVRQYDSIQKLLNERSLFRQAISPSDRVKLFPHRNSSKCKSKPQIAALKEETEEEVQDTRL

COC(=O)C1CC2(C1)CC(N1C(=O)c3cccc(c3)S(=O)(=O)Nc3nc(cc(-c4c(C)cccc4C)n3)CC[C@H]1CC(C)(C)C)C2 (stereo partly shown)
ring closure, yield after HPLC ([1]; from COC(=O)C1CC2(CC(N[C@@H](CCc3cc(-c4c(C)cccc4C)nc(NS(=O)(=O)c4cccc(C(=O)O)c4)n3)CC(C)(C)C)C2)C1, amide bond, CDMT/NMM, DMF, 48.6 mM, 18.0 h): 80%

COc1c2nc(nc1-c1c(C)cccc1C)NS(=O)(=O)c1cccc(c1)C(=O)N(Cc1cncc(N(C)C3CCC3)n1)[C@H](CC(C)(C)C)CC2
ring closure, yield after HPLC ([1]; from COc1c(CC[C@@H](CC(C)(C)C)NCc2cncc(N(C)C3CCC3)n2)nc(NS(=O)(=O)c2cccc(C(=O)O)c2)nc1-c1c(C)cccc1C, amide bond, CDMT/NMM, DMF, 13.3 mM, 72.5 h): 33%

Cc1cccc(C)c1-c1cc2nc(n1)NS(=O)(=O)c1cccc(c1)C(=O)N1Cc3cc(C(C)(C)C)ccc3[C@@H](O2)[C@H]1CC(C)C
ring closure, yield after HPLC ([1]; from Cc1cccc(C)c1-c1cc(O[C@@H]2c3ccc(C(C)(C)C)cc3CN[C@@H]2CC(C)C)nc(NS(=O)(=O)c2cccc(C(=O)O)c2)n1, amide bond, HATU/NaOtBu, THF/DMF, 25.0 °C, 3 steps): 1%

Cc1cccc(C)c1-c1cc2nc(n1)NS(=O)(=O)c1cccc(c1)C(=O)N1Cc3cc(C(C)(C)C)ccc3[C@H](O2)[C@H]1CC(C)C
ring closure, yield after HPLC ([1]; from Cc1cccc(C)c1-c1cc(O[C@H]2c3ccc(C(C)(C)C)cc3CN[C@@H]2CC(C)C)nc(NS(=O)(=O)c2cccc(C(=O)O)c2)n1, amide bond, HATU/NaOtBu, THF/DMF, 80.1 mM, 25.0 °C, 3 steps): 27%

Cc1cccc(C)c1-c1cc2nc(n1)NS(=O)(=O)c1cccc(c1)C(=O)O[C@H]1c3ccc(C(C)(C)C)cc3CN2[C@@H]1CC(C)C
ring closure, yield after HPLC ([1]; from Cc1cccc(C)c1-c1cc(N2Cc3cc(C(C)(C)C)ccc3[C@H](O)[C@H]2CC(C)C)nc(NS(=O)(=O)c2cccc(C(=O)O)c2)n1, ester bond, HATU/NaOtBu, THF/DMF, 25.0 °C, 3 steps): 4%

Cc1cccc(C)c1-c1nc2nc(c1C)OCCNC(=O)c1cccc(c1)S(=O)(=O)N2
ring closure, yield after HPLC ([1]; from Cc1cccc(C)c1-c1nc(NS(=O)(=O)c2cccc(C(=O)O)c2)nc(OCCN)c1C, amide bond, HATU/DIEA, DMF, 50.7 mM, 25.0 °C): 23%

Cc1cccc(C)c1-c1cc2cc(n1)NS(=O)(=O)c1cccc(c1)C(=O)N(C1CC3(CC3)C1)[C@H](CC(C)C)CC2 [Compound 3, (11S)-6-(2,6-Dimethylphenyl)-11-isobutyl-2,2-dioxo-12-spiro[2.3]hexan-5-yl-2 λ6-thia-3,5,12-triazatricyclo[12.3.1.14,8]nonadeca-1(18),4(19),5,7,14,16-hexaen-13-one]
ring closure, yield after HPLC ([1]; from Cc1cccc(C)c1-c1cc(CC[C@@H](CC(C)C)NC2CC3(CC3)C2)cc(NS(=O)(=O)c2cccc(C(=O)O)c2)n1, amide bond, HATU/DIEA, DMF, 26.7 mM, 25.0 °C, 0.25 h): 19%
Ent. B Max Activity [2]: +++ (+++ is >60%)
EC50 [2]: < 1000 nM

Cc1cccc(C)c1-c1nc2nc(c1F)CC[C@@H](CC(C)C)N(C1CC3(CC3)C1)C(=O)c1cccc(c1)S(=O)(=O)N2 [Compound 4, (11S)-6-(2,6-Dimethylphenyl)-7-fluoro-11-isobutyl-2,2-dioxo-12-spiro[2.3]hexan-5-yl-2 λ6-thia-3,5,12,19-tetrazatricyclo[12.3.1.14,8]nonadeca-1(18),4(19),5,7,14,16-hexaen-13-one]
ring closure, yield after HPLC ([1]; from Cc1cccc(C)c1-c1nc(NS(=O)(=O)c2cccc(C(=O)O)c2)nc(CC[C@@H](CC(C)C)NC2CC3(CC3)C2)c1F, amide bond, HATU/DIEA, NMP, 100.9 mM, 25.0 °C, 20.0 h): 30%
Ent. B Max Activity [2]: +++ (+++ is >60%)
EC50 [2]: < 1000 nM

COCCN1CCC2(CC1)CC(N1C(=O)c3cccc(c3)S(=O)(=O)Nc3nc(cc(-c4c(C)cccc4C)n3)CC[C@H]1CC(C)C)C2 [Compound 9, (11S)-6-(2,6-Dimethylphenyl)-11-isobutyl-12-[7-(2-methoxyethyl)-7-azaspiro[3.5]nonan-2-yl]-2,2-dioxo-2λ6-thia-3,5,12,19-tetrazatricyclo[12.3.1.14,8]nonadeca-1(18),4(19),5,7,14,16-hexaen-13-one]
Ent. B Max Activity [2]: +++ (+++ is >60%)
EC50 [2]: < 1000 nM

Cc1cccc(C)c1-c1cc2nc(n1)NS(=O)(=O)c1cccc(c1)C(=O)N(CCCC(C)(C)O)CCC2C (stereo not shown) [Compound 10, 6-(2,6-Dimethylphenyl)-12-(4-hydroxy-4-methyl-pentyl)-9-methyl-2,2-dioxo-2λ6-thia-3,5,12,19-tetrazatricyclo[12.3.1.14,8]nonadeca-1(18),4(19),5,7,14,16-hexaen-13-one]
Ent. B Max Activity [2]: +++ (+++ is >60%)
EC50 [2]: 1000 to 3000 nM

Cc1cccc(C)c1-c1cc2nc(n1)NS(=O)(=O)c1cccc(c1)C(=O)N[C@H](CC(C)C)CC2 [Compound 14]
Ent. B Max Activity [2]: +++ (+++ is >60%)
EC50 [2]: < 1000 nM

Cc1cccc(C)c1-c1cc2nc(n1)NS(=O)(=O)c1cccc(n1)C(=O)N(C1CC3(CC3)C1)[C@H](CC(C)C)CC2 [Compound 15]
Ent. B Max Activity [2]: ++ (++ is 30-60%)
EC50 [2]: < 1000 nM

Cc1cccc(C)c1-c1cc2nc(n1)NS(=O)(=O)c1cccc(c1)C(=O)N(Cc1ccc(C(C)(C)O)cc1)CCC2C (stereo not shown) [Compound 16]
Ent. B Max Activity [2]: +++ (+++ is >60%)
EC50 [2]: < 1000 nM

Cc1cccc(C)c1-c1cc2nc(n1)NS(=O)(=O)c1cccc(c1)C(=O)N(C)CCC2C (stereo not shown) [Compound 17]
Ent. B Max Activity [2]: +++ (+++ is >60%)
EC50 [2]: 1000 to 3000 nM

Cc1cccc(C)c1-c1cc2nc(n1)NS(=O)(=O)c1cccc(c1)C(=O)N(Cc1ncccn1)CCC2C (stereo not shown) [Compound 18]
Ent. B Max Activity [2]: +++ (+++ is >60%)
EC50 [2]: 1000 to 3000 nM

Cc1cccc(C)c1-c1cc2nc(n1)NS(=O)(=O)c1cccc(c1)C(=O)N(C1CC3(CC3)C1)CCC2c1ccc(C(C)(C)C)cc1 (stereo not shown) [Compound 19]
Ent. B Max Activity [2]: ++ (++ is 30-60%)
EC50 [2]: < 1000 nM

Cc1cccc(C)c1-c1cc2nc(n1)NS(=O)(=O)c1cccc(c1)C(=O)N(C1CC3(CC3)C1)CC2Cc1ccc(C(C)(C)C)cc1 (stereo not shown) [Compound 20]
Ent. B Max Activity [2]: ++ (++ is 30-60%)
EC50 [2]: < 1000 nM

Cc1cccc(C)c1-c1cc2nc(n1)NS(=O)(=O)c1cccc(c1)C(=O)N(C1CC3(CC3)C1)CC[C@H]2c1ccc(C(C)(C)C)cc1 [Compound 22]
Ent. B Max Activity [2]: ++ (++ is 30-60%)
EC50 [2]: < 1000 nM

Cc1cccc(C)c1-c1cc2nc(n1)NS(=O)(=O)c1cccc(c1)C(=O)N(C1CC3(CC3)C1)CC[C@H]2c1ccc(C(C)(C)C)cc1 [Compound 23]
Ent. B Max Activity [2]: ++ (++ is 30-60%)

Cc1cccc(C)c1-c1cc2nc(n1)NS(=O)(=O)c1cccc(c1)C(=O)OC[C@@H](CC(C)(C)C)N2c1ccnn1C [Compound 29]
Ent. B Max Activity [2]: + (+ is <30%)

Cc1cccc(C)c1-c1cc2nc(n1)NS(=O)(=O)c1cccc(c1)C(=O)OC[C@@H](CC(C)(C)C)N2Cc1nccc(C(F)(F)F)n1 [Compound 32]
Ent. B Max Activity [2]: + (+ is <30%)

Cc1cccc(C)c1-c1cc2nc(n1)NS(=O)(=O)c1cccc(c1)C(=O)N(C1CC3(CC3)C1)CCC21CC1 [Compound 41, 6-(2,6-Dimethylphenyl)-2,2-dioxo-12-spiro[2.3]hexan-5-yl-spiro[2λ6-thia-3,5,12,19-tetrazatricyclo[12.3.1.14,8]nonadeca-1(18),4(19),5,7,14,16-hexaene-9,1′-cyclopropane]-13-one]
Ent. B Max Activity [2]: ++ (++ is 30-60%)
EC50 [2]: < 1000 nM
